Several values for one entry are separate records, joined by “and”; a condition that tells them apart may be missing. Identical values can stand only once. Like-named read-outs stand apart in the source and are kept apart here.
How the values were obtained:
[1] = system: H2444; test: Dose response study (Alamar Blue), H2444; type: cell-based; settings: Homo sapiens, read-out: IC50 H2444
Experimental: (§1) Dose response studies against 34 compounds from the pyridazinone and phenylfuran-carboxamide class were conducted. […] In addition, Tarceva was included in these dose response studies.
(§2) The dose response studies were done with the following standard procedure. First, the cells were counted and dispensed at 250 cells/well into 384-well microplates with compound. The cells were incubated for 48 hours at 37 C to complete treatment, and then alamar blue was added for an additional 48 hours. Finally, alamar blue reduction was measured and the data was loaded into ORIS, our data screening acquisition platform.

[2] = system: H1118; test: Non Small Cell Lung Cancer proliferation assay (Alamar Blue reduction), H1118; type: cell-based
Experimental: (§3) Non Small Cell Lung Cancer Proliferation Assay. To perform the assay, the Non Small Cell Lung Cancer lines are diluted in media and plated into 384 well microplates at a final density of 250 cells in […]. To ensure consistency and minimal pipetting error, the cells are plated using the Multidrop 384 with the following settings: Rocker Switch set at 384, Volume 45 and Column 24.
(§4) Low Controls for this assay are made by treating Non Small Cell Lung Cancer cells with 5 ul of staurosporine at 250 uM in 10% DMSO and 1% SDS. [Final concentration in this assay is 25 uM staurosporine in 1% DMSO and 0.1% SDS.]
(§5) High Controls for this assay are made by treating Non Small Cell Lung Cancer cells with 5 ul of 10% DMSO. [Final concentration in this assay is 1% DMSO].
(§6) The remaining wells of the 384 microplate may be treated with different compounds depending on the study. Important Note: All compounds for testing in this assay should be done at the final concentration of 1% DMSO.
(§7) After addition, the cells are placed in cell culture incubator at 37° C. for 48 hours for complete treatment.
(§8) After drug treatment, cytotoxicity is measured by Alamar Blue reduction. 5 μL of Alamar Blue is added to the 384 microplates using the Flexdrop.
(§9) The cells are incubated for 48 hours at 37° C. to complete the Alamar Blue reduction.
(§10) The final step in the assay is to measure the amount of Alamar Blue reduction. […] The Alamar Blue fluorescence is measured at an excitation of 530 nm and emission of 590 nm.
(§11) For the NSCLC project, the cell based assay was screened against a small molecule library of approximately 200,000 compounds. The compound library is stored in our automated robotic freezer (Biophile) at −20° C. in 100% DMSO. Compound freeze and thaw cycles are kept to a minimum. Compounds for use are diluted into the appropriate concentration and plated into 384 well microplates using our custom built low volume 384-well head tool (TPS 384, Apricot Designs Inc., CA, USA). This assay was performed on a fully automated linear track robotic platform (CRS F3 Robot System, Thermo Electron Corp., Ontario, Canada) utilizing several integrated peripherals for plate handling, liquid dispensing, and readout detection. First, non-small cell lung cancer cell lines are dispensed into 384 well microplates (Corning #3712 Tissue Culture Treated Plate, Corning, N.Y., USA) with 5 μL of test compounds at 100 uM in 10% DMSO for screening studies or 1 mM in 10% DMSO to 50 nM in 10% DMSO for dose response studies. The microplates are then placed at 37° C. for 48 hours to complete treatment of cells with compounds. Next, 5 ul of alamar blue was added using a liquid dispenser (Flexprop Precision Dispenser, Perkin Elmer, Mass., USA) and incubated for 48 hours at 37° C. The alamar blue prompt fluorescence was measured on Victor V (Victor^3 V, Perkin Elmer, Mass., USA) and output data files were loaded into ORIS (Oncology Research Informatics System, MSKCC, NY, USA), a screening data acquisition and analysis platform.
as §2

[3] = system: H460; test: Dose response study (Alamar Blue), H460; type: cell-based; settings: Homo sapiens, read-out: IC50 H460
Experimental: as §1, §2

[4] = system: H1734; test: Non Small Cell Lung Cancer proliferation assay (Alamar Blue reduction), H1734; type: cell-based, human
Experimental: (§12) These cells have a doubling time of 1-2 days. All cell types are adherent and grow in colonies. The cells should be kept at a density between 50,000 cells/mL -500,000 cells/mL to provide for optimum growth and adequate nutrition. The cell line should be maintained at 37° C. in a humidified atmosphere with 5% CO2 in a sterile cell culture incubator.
Non Small Cell Lung Cancer Proliferation Assay.
as §5
Important Note: All compounds for testing in this assay should be done at the final concentration of 1% DMSO.
as §7
After drug treatment, cytotoxicity is measured by Alamar Blue reduction.
as §9, §10
as §11, with “Compounds for use are diluted into the appropriate concentration and plated into 384 well microplates using our custom built low volume 384-well head tool (TPS 384, Apricot Designs Inc., CA, USA).” left out, “First, non-small cell lung cancer cell lines are dispensed into 384 well microplates (Corning #3712 Tissue Culture Treated Plate, Corning, N.Y., USA) with 5 μL of test compounds at 100 uM in 10% DMSO for screening studies or 1 mM in 10% DMSO to 50 nM in 10% DMSO for dose response studies.” left out
as §2

[5] = system: H23; test: Dose response study (Alamar Blue), H23; type: cell-based; settings: Homo sapiens, read-out: IC50 H23
Experimental: as §1, §2

[6] = system: H827; test: Non Small Cell Lung Cancer proliferation assay (Alamar Blue reduction), H827; type: cell-based
Experimental: as §12, with “[…] are grown and maintained in Corning 175 cm2 flasks in RPMI 1640 media supplemented with 10% FBS, 1% antibiotic solution, 1% additional glutamine and pyruvate. These” for “These”
as §3, §4, §5, §6, §7, §8, §9, §10, §11

[7] = Homo sapiens, 48 h, read-out: IC50 H1118
[8] = Homo sapiens, read-out: Dose Response (uM) H1118
[9] = Homo sapiens, NCI-H1734, 48 h, H1734, 12 point doubling dilution 10 uM to 5 nM, 48 h treatment, alamar blue additional 48 h, read-out: IC50 H1734
[10] = Homo sapiens, NCI-H1734, dose response 10 M to 5 nM, IC50, read-out: Dose Response (uM) H1734
[11] = Homo sapiens, read-out: Dose Response (uM) H827
[12] = NCI-H2444, H2444, 12 point doubling dilution 10 uM to 5 nM, 48 h treatment, alamar blue additional 48 h
[13] = Homo sapiens; H1118; 12 point doubling dilution 10 uM to 5 nM; 48 h treatment, alamar blue additional 48 h; read-out: IC50 H1118
[14] = Homo sapiens; read-out: Dose Response (uM) H1118
[15] = NCI-H460, H460, 12 point doubling dilution 10 uM to 5 nM, 48 h treatment, alamar blue additional 48 h
[16] = Homo sapiens, NCI-H1734, H1734, 12 point doubling dilution 10 uM to 5 nM, 48 h treatment, alamar blue additional 48 h, read-out: IC50 H1734
[17] = Homo sapiens, NCI-H1734, read-out: Dose Response (uM) H1734
[18] = NCI-H23, H23, 12 point doubling dilution 10 uM to 5 nM, 48 h treatment, alamar blue additional 48 h
[19] = Homo sapiens; read-out: Dose Response (uM) H827

| SMILES | IC50 ([1]; NCI-H2444, 48 h) [nM] | IC50 [2, 7] [µM] | IC50 [2, 8] [µM] | IC50 ([3]; NCI-H460, 48 h) [nM] | IC50 [4, 9] [µM] | IC50 [4, 10] [µM] | IC50 ([4]; dose response 10 M to 5 nM, IC50, read-out: Dose Response (uM) H1734) | IC50 ([5]; NCI-H23, 48 h) [nM] | IC50 [6, 11] [µM] | IC50 [1, 12] [nM] | IC50 [2, 13] [µM] | IC50 [2, 14] [µM] | IC50 [3, 15] [nM] | IC50 [4, 16] [µM] | IC50 [4, 17] [µM] | IC50 [5, 18] [nM] | IC50 [6, 19] [µM] |
| --- | --- | --- | --- | --- | --- | --- | --- | --- | --- | --- | --- | --- | --- | --- | --- | --- | --- |
| Cc1cccc(-n2ncc(Cl)c(Cl)c2=O)c1 [compound 104122, 4,5-dichloro-2-m-tolyl-2H-pyridazin-3-one] | 240 | 0.34 | 0.11 | 1560 | 2.14 | 2.17 | 1.17 µM and 2.21 µM and 1.73 µM | 210 | 0.09 | – | – | – | – | – | – | – | – |
| O=c1c(Cl)c(Cl)cnn1-c1cccc(C(F)(F)F)c1 [compound 176729] | – | – | – | – | – | – | – | – | – | 210 | 0.31 | 0.2 | 1260 | 1.22 | 0.61 | 230 | 0.17 |
| O=c1c(Cl)c(Cl)cnn1-c1ccccc1 [compound 257014] | 340 | 0.45 | 0.27 | 2010 | 2.28 | 4.11 | – | 260 | 0.24 | – | – | – | – | – | – | – | – |
| O=c1c(Br)c(Br)cnn1-c1ccccc1 [compound 257015] | – | – | – | – | – | – | – | – | – | 300 | 0.37 | 0.22 | 1300 | 1.62 | 0.87 | 230 | 0.17 |
| Cc1ccc(-n2ncc(Cl)c(Cl)c2=O)cc1 [compound 257016] | – | – | – | – | – | – | – | – | – | 410 | 0.54 | 0.38 | 2550 | 3.22 | 3.37 | 320 | 0.29 |
| Cc1cccc(-n2ncc(Cl)c(Cl)c2=O)c1C [compound 257018] | – | – | – | – | – | – | – | – | – | 850 | 0.54 | 0.44 | 3510 | 2.51 | 2.12 | 240 | 0.5 |
| Cc1ccc(-n2ncc(Cl)c(Cl)c2=O)cc1C [compound 257019] | – | – | – | – | – | – | – | – | – | 820 | 0.94 | 0.29 | 4090 | 4.65 | 2.01 | 690 | 0.32 |
| Cc1cc(C)cc(-n2ncc(Cl)c(Cl)c2=O)c1 [compound 257020] | – | – | – | – | – | – | – | – | – | 400 | 0.58 | 0.34 | 2930 | 2.62 | 1.83 | 460 | 0.3 |

Source: patent US20100210649A1, “PYRIDAZINONES AND FURAN-CONTAINING COMPOUNDS” (Sloan-Kettering Institute for Cancer Research, priority 2006, published 2010)
